{
  "source": "patent US20160325911A1",
  "about": "“ANTIMICROBIAL COMPOSITIONS FOR FOOD PACKAGING CONSISTING OF SALICYLALDEHYDE AND CARVACROL, THYMOL OR THEIR MIXTURE” (INSTITUTO TECNOLÓGICO DEL EMBALAJE, TRANSPORTE Y LOGÍSTICA, priority 2014, published 2016)",
  "format_in_all_cases": "cell-based",
  "details_in_all_cases": "alone or as component of the blend, 20 h at 36° C. in TSB",
  "key": {"[1]": {"system": "Pseudomonas aeruginosa (strain ATCC 27853)", "test": "Broth dilution MIC and synergy index against Pseudomonas aeruginosa", "procedure": "(§1) Solutions containing carvacrol, thymol and salicylaldehyde were assessed for antimicrobial activity against three different reference microorganisms: • Gram negative bacteria—Escherichia coli (strain ATCC 8739) • Gram negative bacteria—Pseudomonas aeruginosa (strain ATCC 27853) • Gram positive bacteria—Staphylococcus aureus (strain ATCC6538)\n(§2) The microorganisms were collected from the “Colección Española de Cultivos Tipo” (CECT), University of Valencia. They were collected in the form of a lyophilized inoculum and were refreshed by regular seeding in solid culture media. After the grown, the stock culture was kept under refrigeration. Prior to the analysis, the microorganisms were recultured 3-4 times by diluting colonies in tryptic soy broth (TSB) and incubating overnight at 36° C.\n(§3) The day prior to the assay, the colonies are touched with a loop and transferred to tryptic soy broth (TBS) (100 mL). The broth is incubated at 36° C. overnight until the growth reaches a turbidity equal or similar to 10^9 colony-forming units per millilitre (CFU/mL). The culture is adjusted to give a turbidity equivalent to 0.18 absorbance units in order to confirm the inoculum is in the exponential growth phase (around 10^5-10^6 CFU/mL). The measurement is carried out by using a UV-VIS spectrometer, operating at 550 nm and a 1-cm path cell. […]\n(§4) The antimicrobial efficacy of Carvacrol, Thymol and Salycylaldehyde and their blends, was determined as Minimum Inhibitory Concentration (MIC). MIC is recorded as the lowest product concentration that inhibits growth. […]\n(§5) Where: • CM is the MIC of the substance n when used in a blend, that is, in combination with the rest of antimicrobial compounds analysed. • CS is the MIC of the substance when used alone.\n(§6) SI below 1 indicates synergy effect and p-value has been calculated as the probability of obtaining the observed sample results (or a more extreme result) when the null hypothesis is actually true. […]"}, "[2]": {"system": "Staphylococcus aureus (strain ATCC6538)", "test": "Broth dilution MIC and synergy index against Staphylococcus aureus", "procedure": "as §1, §2, §3, §4, §5, §6"}, "[3]": {"system": "Escherichia coli (strain ATCC 8739)", "test": "Broth dilution MIC and synergy index against Escherichia coli", "procedure": "as §1, §2, §3, §4, §5, §6"}, "[4]": {"details": "amount of salicylaldehyde at the MIC"}},
  "data": [
    {"smiles": "O=Cc1ccccc1O", "note": "[Salicylaldehyde, salicylaldehyde]", "values": [
      {"measurement": "MIC Pseudomonas aeruginosa, Salicylaldehyde", "setting": "[1]; [4]", "result": 2.25, "unit": "mg"},
      {"measurement": "MIC Staphylococcus aureus, Salicylaldehyde", "setting": "[2]; [4]", "result": 4.75, "unit": "mg"},
      {"measurement": "MIC Escherichia coli, Salicylaldehyde", "setting": "[3]; [4]", "result": 4.75, "unit": "mg"}
    ]},
    {"smiles": "Cc1ccc(C(C)C)c(O)c1", "note": "[Thymol, thymol]", "values": [
      {"measurement": "MIC Pseudomonas aeruginosa, Thymol", "setting": "[1]; amount of thymol at the MIC", "result": 4.5, "unit": "mg"},
      {"measurement": "MIC Staphylococcus aureus, Thymol", "setting": "[2]; amount of thymol at the MIC", "result": 1.1, "unit": "mg"},
      {"measurement": "MIC Escherichia coli, Thymol", "setting": "[3]; amount of thymol at the MIC", "result": 2, "unit": "mg"}
    ]},
    {"smiles": "Cc1ccc(C(C)C)cc1O", "note": "[Carvacrol, carvacrol]", "values": [
      {"measurement": "MIC Pseudomonas aeruginosa, Carvacrol", "setting": "[1]; amount of carvacrol at the MIC", "result": 7.5, "unit": "mg"},
      {"measurement": "MIC Staphylococcus aureus, Carvacrol", "setting": "[2]; amount of carvacrol at the MIC", "result": 2.1, "unit": "mg"},
      {"measurement": "MIC Escherichia coli, Carvacrol", "setting": "[3]; amount of carvacrol at the MIC", "result": 3, "unit": "mg"}
    ]}
  ]
}
